Consider one compound from patent US10695275B2, “Anti-aging composition” (NEOPHARM CO., LTD., priority 2016, dated 2020).

Format in all cases: cell-based
The test system of one data set is human fibroblasts. The data set is described as follows: type-1 collagen synthesis in human fibroblasts (PICP EIA kit). The conditions noted are these: 24 hours. As to the method: N-(2-hydroxyethyl)octanamide was added to a culture medium of human fibroblasts (DMEM medium, 10% fetal bovine serum, 1% antibiotics) to confirm the effect of accelerating type-1 collagen synthesis in a cell level. The measurement of the synthesized collagen was qualified using a procollagen type I C-peptide enzyme immunoassay kit (PICP EIA kit).
The human fibroblast culture medium was used to aliquot the human-derived fibroblasts (human fibroblasts) into 6 wells at 2×10^5 cell/well. After cell adhesion was confirmed, the culture medium was treated with 2 ml of N-(2-hydroxyethyl)octanamide as an effective component (anti-aging composition) per each well, at a concentration of 20 uM. After the culture medium was cultured in an incubator under a condition of 37° C. and 5% CO2 for 24 hours, type-1 collagen which is related to a wrinkle forming factor was measured in a cell extract. Here, the concentration of the anti-aging composition is within a range being not toxic and not deriving cell proliferation, when treating human-derived fibroblasts. […]
The effect of accelerating type-1 collagen synthesis was confirmed in the same manner as in Example 1, except that the effective component was not used (a negative control). In addition, type-1 collagen synthesis ability relative to the negative control was calculated as a ratio, and represented by a rate of increase. […]

Data set [1] relates to human-derived fibroblasts. The experiment in a line: toxicity / cell proliferation in human-derived fibroblasts. The conditions noted are these: concentration of 20 uM.
Data set [2] relates to Artificial skin (EpiDermFT). The data set is described as follows: collagen fiber staining (Masson's Trichrome) in artificial skin. As to conditions: 0.1%, 100 μl applied on the surface, 24 hours. An excerpt:
When photo-aging of the skin proceeds by ultraviolet rays, a collagen fiber network in an epidermis-dermis junction is damaged. Thus, the amount and form of collagen fiber is used as an indicator of skin photo-aging. The skin tissue of a hairless mouse which was irradiated with ultraviolet rays after N-(2-hydroxyethyl)octanamide was applied, was stained with Masson's Trichrome, observed using an optical microscope (IX71, Olympus, JPN), and then photographed using a digital camera (DP71, Olympus, JPN).
Artificial skin (EpiDermFT™ from MatTek, Ashland, USA) was purchased, and stabilized in an exclusive medium (EFT-400) for 18 hours. On the surface of the artificial skin, 100 μl of N-(2-hydroxyethyl)octanamide as an effective component (anti-aging composition) at a concentration of 0.1% was applied. After 24 hours, the artificial skin tissue was immobilized with 10% formaldehyde, and embedded with paraffin, and a tissue sliced at 5 μm was stained with Masson's Trichrome (M&T), thereby observing a staining degree of collagen fiber. The results were illustrated in the following FIG. 2.

Structures are written as SMILES.

On to `CCCCCCCC(=O)NCCO` [Example 1, N-(2-hydroxyethyl)octanamide], for which the “Rate of increase (%) of type-1 collagen synthesis relative to negative control” value in the data set with human fibroblasts (20 uM, ratio to Comparative Example 1 (non-treated)) is 750%. Besides, the “type-1 collagen concentration (20 uM)” value with human fibroblasts (human fibroblasts treated at 20 uM, measured in cell extract) is 0.015. In data set [1], the “toxicity to human-derived fibroblasts” value is reported as “not toxic”. Further, the “staining degree of collagen fiber (aniline blue) in the dermal layer under the epidermis” value in data set [2] was “strongly stained”.
